Reference: patent US20220281886A1, “NATRIURETIC PEPTIDE RECEPTOR A AGONISTS USEFUL FOR THE TREATMENT OF CARDIOMETABOLIC DISEASES, KIDNEY DISEASE AND DIABETES” (Merck Sharp & Dohme Corp., priority 2019, published 2022)

The compounds below were run against T1, hNPRA (Homo sapiens, UniProt P16066) (assay: NPRA Functional Cell Assay (cGMP HTRF)). Conditions: Human NPRA HEK JumpIn stable cells; cGMP by HTRF after 1 hour at 37° C.; 10-point dose response.
T1 construct: expressed in transfected cells
T1 sequence (P16066 33-1061): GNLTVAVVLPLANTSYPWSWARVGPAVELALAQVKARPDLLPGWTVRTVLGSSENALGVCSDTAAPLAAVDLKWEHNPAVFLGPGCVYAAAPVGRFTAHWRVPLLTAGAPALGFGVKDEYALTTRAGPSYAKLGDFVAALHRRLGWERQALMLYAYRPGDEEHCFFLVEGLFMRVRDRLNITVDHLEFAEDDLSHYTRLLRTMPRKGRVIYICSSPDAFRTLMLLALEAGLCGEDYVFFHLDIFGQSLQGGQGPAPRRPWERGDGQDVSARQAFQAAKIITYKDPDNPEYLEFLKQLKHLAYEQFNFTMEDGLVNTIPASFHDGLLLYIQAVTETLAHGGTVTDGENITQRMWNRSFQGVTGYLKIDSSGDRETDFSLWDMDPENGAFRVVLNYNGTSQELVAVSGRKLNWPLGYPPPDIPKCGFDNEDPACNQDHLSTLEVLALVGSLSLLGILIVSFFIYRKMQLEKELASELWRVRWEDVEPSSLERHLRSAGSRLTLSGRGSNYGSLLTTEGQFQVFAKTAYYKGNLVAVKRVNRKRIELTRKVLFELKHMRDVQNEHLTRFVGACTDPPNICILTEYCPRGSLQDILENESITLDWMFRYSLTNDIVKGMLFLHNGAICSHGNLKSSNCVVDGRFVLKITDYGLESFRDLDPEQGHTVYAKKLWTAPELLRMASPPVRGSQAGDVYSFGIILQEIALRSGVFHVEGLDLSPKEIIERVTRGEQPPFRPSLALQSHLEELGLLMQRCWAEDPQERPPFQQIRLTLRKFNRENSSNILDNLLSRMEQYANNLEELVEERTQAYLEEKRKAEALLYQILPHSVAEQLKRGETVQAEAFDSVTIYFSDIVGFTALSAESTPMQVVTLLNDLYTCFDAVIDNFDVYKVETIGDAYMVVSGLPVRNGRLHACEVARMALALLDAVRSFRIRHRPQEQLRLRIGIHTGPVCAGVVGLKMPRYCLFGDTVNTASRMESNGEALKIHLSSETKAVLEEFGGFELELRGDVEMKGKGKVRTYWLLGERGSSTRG
Assay type: cell-based
Text: Assay Buffer components HEPES and Opti-MEM® I Reduced-Serum with Glutamine (no phenol red) were from Gibco/Invitrogen (Thermo Fisher Scientific, Waltham, Mass. USA). 3-Isobutyl-1-methylxanthine (IBMX) and 4-(3-Butoxy-4-methoxybenzyl)imidazolidin-2-one (RO20) were obtained from Sigma-Aldrich (St. Louis, Mo., USA). DPBS (Dulbecco's phosphate-buffered saline) without Ca2+ and Mg2+ was purchased from GE Healthcare Bio-Sciences (Pittsburgh, Pa., USA). 384 well white Optiplates were from Perkin Elmer (Atlantic Highlands, N.J., USA). Human ANP (Atrial Natriuretic Peptide) (1-28) was purchased from Sigma-Aldrich (Catalog #A1663) and rat ANP (1-28) from Bachem (Torrance, Calif., USA) (Catalog #H2100). Human-BNP (Human-Brain Natriuretic Peptide) (1-32 AA) was purchased from American Peptide Company (Sunnyvale, Calif., USA) (product No. 14-1-90). cGMP kits were purchased from Cisbio. The assay ready frozen (ARF) Human/rat/dog NPRA HEK JumpIn Stable frozen cells (low passage number 5-11) were prepared in-house.
Test compounds were titrated in DMSO in a 10-point dose response in a separate step followed by a 100-fold dilution into the reaction. Positive response for each assay was determined using 10 nM rat-ANP peptide (rat cells) or 50 nM h-ANP peptide (human and dog cells).
Cells were thawed, washed with DPBS and resuspended in assay buffer (Opti-MEM+Glutamine, phenol red free media, 10 mM HEPES, 100 uM IBMX and 100 uM RO20) that was warmed to 37° C. Cells were then transferred to microplates via a Microplate Combi dispenser at a density of 1500, 400 and 1200 cells/well for human, rat and dog cells respectively, followed by acoustic transfer (Echo) of compound.
(§1) Compounds and cells were incubated at 37° C. with 5% CO2 for 1 hour, after which the cells were lysed and cGMP was captured using a CisBio cGMP HTRF assay kit. The TRF signal was measured with an Envision plate reader (emission set to 615 and 665 nm) after 1 hour incubation at ambient temperature. The TRF signal was converted to [cGMP] through the use of a cGMP calibration curve on each microplate. EC50's were generated from the resulting dose response curves by use of a 4 parameter logistic algorithm.
Assay Buffer components HEPES and Opti-MEM® I Reduced-Serum with Glutamine (no phenol red) were from Gibco/Invitrogen. 3-Isobutyl-1-methylxanthine (IBMX) and 4-(3-Butoxy-4-methoxybenzyl)imidazolidin-2-one (RO20) were obtained from Sigma. DPBS (Dulbecco's phosphate-buffered saline) without Ca2+ and Mg2+ was purchased from GE Healthcare Bio-Sciences (Pittsburgh, Pa., USA). 384 well white Optiplates were from Perkin Elmer (Atlantic Highlands, N.J., USA). Human ANP (1-28) was purchased from Sigma (A1663) and rat ANP (1-28) from Bachem (H2100). Human-BNP (1-32 AA) was purchased from American Peptide Company (Sunnyvale, Calif., USA) (product No. 14-1-90). cGMP kits were purchased from Cisbio (Bedford, Mass., USA). The assay ready frozen (ARF) Human/rat/dog NPRA HEK JumpIn Stable frozen cells (low passage number 5-11) were prepared in-house.
as §1, with “Envision®” for “Envision”, “(Perkin Elmer)(emission” for “(emission”
hNPRA EC50 (nM) are were determined for the compounds of Example 1 through 273 and are reported in the Experimental section of this application.

Row | EC50 [nM] | SMILES
1 | 258 | CC(C)C1CCN(CC[C@@H](NC(=O)c2cc(F)c3nc4c(cc3c2)C[C@](F)(C(C)C)CC4)c2ccc(-c3ccnnc3)nc2)CC1 (racemic) [Example 56, rac-(7S)-4,7-difluoro-7-isopropyl-N-[rac-(1R)-3-(4-isopropyl-1-piperidyl)-1-(6-pyridazin-4-yl-3-pyridyl)propyl]-6,8-dihydro-5H-acridine-2-carboxamide]
2 | 258 | CC(C)[C@]1(F)CCc2nc3c(F)cc(C(=O)N[C@H](CCN4CCC5(CC4)CC5CO)c4ccc(-c5ccnnc5)nc4)cc3cc2C1 (mixture of isomers) [Example 39, rac-(7S)-4,7-difluoro-7-isopropyl-N-[rac-(1R)-3-[2-(hydroxymethyl)-6-azoniaspiro[2.5]octan-6-yl]-1-(6-pyridazin-4-yl-3-pyridyl)propyl]-6,8-dihydro-5H-acridine-2-carboxamide;2,2,2-trifluoroacetate]
3 | 79.7 | CC(C)[C@]1(F)CCc2nc3c(F)cc(C(=O)N[C@H](CCN4CCCCC4CO)c4ccc(-c5ccnnc5)nc4)cc3cc2C1 (mixture of isomers) [Example 58, rac-(7S)-4,7-difluoro-7-isopropyl-N-[rac-(1R)-3-[2-(hydroxymethyl)-1-piperidyl]-1-(6-pyridazin-4-yl-3-pyridyl)propyl]-6,8-dihydro-5H-acridine-2-carboxamide]
4 | 147 | COC1CCN(CC[C@@H](NC(=O)c2cc(F)c3nc4c(cc3c2)C[C@](F)(C(C)C)CC4)c2ccc(-c3ccnnc3)nc2)CC1 [Example 18, (7S)-4,7-difluoro-N-[(1R)-3-(4-methoxypiperidin-1-yl)-1-(6-pyridazin-4-ylpyridin-3-yl)propyl]-7-(1-methylethyl)-5,6,7,8-tetrahydroacridine-2-carboxamide]
5 | 91.1 | CC(C)[C@]1(F)CCc2nc3c(F)cc(C(=O)N[C@H](CCN4CCC(C(O)C5(CO)CC5)CC4)c4ccc(-c5ccnnc5)nc4)cc3cc2C1 (mixture of isomers) [Example 54, rac-(7S)-4,7-difluoro-7-isopropyl-N-[rac-(1R)-3-[4-[hydroxy-[1-(hydroxymethyl)cyclopropyl]methyl]-1-piperidyl]-1-(6-pyridazin-4-yl-3-pyridyl)propyl]-6,8-dihydro-5H-acridine-2-carboxamide]

Continued, compound first:

Row | SMILES | EC50 [nM]
6 | COC(=O)C1CCN(CC[C@@H](NC(=O)c2cc(F)c3nc4c(cc3c2)C[C@](F)(C(C)C)CC4)c2ccc(-c3cnc(O)c(F)c3)cc2)CC1 [Example 24, methyl 1-((R)-3-((S)-4,7-difluoro-7-isopropyl-5,6,7,8-tetrahydroacridine-2-carboxamido)-3-(4-(5-fluoro-6-hydroxypyridin-3-yl)phenyl)propyl)piperidine-4-carboxylate] | 237
7 | CC(C)[C@]1(F)CCc2nc3c(F)cc(C(=O)N[C@H](CCN4CCC(O)CC4)c4cnc(NS(=O)(=O)N(C)C)c(F)c4)cc3cc2C1 [Example 27, (S)-N-((R)-1-(6-((N,N-dimethylsulfamoyl)amino)-5-fluoropyridin-3-yl)-3-(4-hydroxypiperidin-1-yl)propyl)-4,7-difluoro-7-isopropyl-5,6,7,8-tetrahydroacridine-2-carboxamide] | 2450
8 | O=C(N[C@H](CCN1CCC(O)CC1)c1ccc(N2CCOC2=O)cc1)c1ccc2nc3c(cc2c1)C[C@@H](C1(C(F)(F)F)CC1)CC3 [Example 4, (7S)-N-{(1R)-3-(4-hydroxypiperidin-1-yl)-1-[4-(2-oxo-1,3-oxazolidin-3-yl)phenyl]propyl}-7-[1-(trifluoromethyl)cyclopropyl]-5,6,7,8-tetrahydroacridine-2-carboxamide] | 2220
9 | CC(C)[C@]1(F)CCc2nc3c(F)cc(C(=O)N[C@H](CCN4CCC(O)CC4)c4cnc(-c5ccnnc5)c(F)c4)cc3cc2C1 [Example 20, (7S)-4,7-difluoro-N-[(1R)-1-(5-fluoro-6-pyridazin-4-ylpyridin-3-yl)-3-(4-hydroxypiperidin-1-yl)propyl]-7-(1-methylethyl)-5,6,7,8-tetrahydroacridine-2-carboxamide] | 125
10 | CN(C)CC[C@@H](NC(=O)c1ccc2nc3c(cc2c1)C[C@@H](C1(C)CC1)CC3)c1cccc(C(=O)NC2CN(C)C2)c1 (racemic) [Example 67, rac-(7S)-7-(1-methylcyclopropyl)-N-[rac-(1R)-3-(dimethylamino)-1-[3-[(1-methylazetidin-3-yl)carbamoyl]phenyl]propyl]-5,6,7,8-tetrahydroacridine-2-carboxamide] | 378
11 | CC(C)[C@]1(F)CCc2nc3c(F)cc(C(=O)N[C@H](CCN4CC5CC(C4)C5(O)C(F)(F)F)c4ccc(-c5ccnnc5)nc4)cc3cc2C1 (stereo partly drawn) [Example 14, (7S)-4,7-difluoro-N-[(1R)-3-[6-hydroxy-6-(trifluoromethyl)-3-azabicyclo[3.1.1]hept-3-yl]-1-(6-pyridazin-4-ylpyridin-3-yl)propyl]-7-(1-methylethyl)-5,6,7,8-tetrahydroacridine-2-carboxamide] | 2090
12 | CC(C)[C@]1(F)CCc2nc3c(F)cc(C(=O)N[C@H](CCN4CCC(O)(C(=O)O)CC4)c4ccc(-c5ccnnc5)nc4)cc3cc2C1 [Example 13, 1-[(3R)-3-({[(7S)-4,7-difluoro-7-(1-methylethyl)-5,6,7,8-tetrahydroacridin-2-yl]carbonyl}amino)-3-(6-pyridazin-4-ylpyridin-3-yl)propyl]-4-hydroxypiperidine-4-carboxylic acid] | 855
13 | COCCCC1CCN(CC[C@@H](NC(=O)c2cc(F)c3nc4c(cc3c2)C[C@](F)(C(C)C)CC4)c2ccc(-c3ccnnc3)nc2)CC1 (racemic) [Example 51, rac-(7S)-4,7-difluoro-7-isopropyl-N-[rac-(1R)-3-[4-(3-methoxypropyl)-1-piperidyl]-1-(6-pyridazin-4-yl-3-pyridyl)propyl]-6,8-dihydro-5H-acridine-2-carboxamide] | 175
